From patent US20120135091A1, “METHODS AND COMPOSITIONS FOR ENHANCING LIFESPAN INVOLVING SIRTUIN-MODULATING COMPOUNDS AND CHALCOGENIDES” (priority 2007, published 2012)
Like-named read-outs stand apart in the source and are kept apart here.

Experiments:
C57BL/6 mice [1] = system: C57BL/6 mice
Procedure: In one set of experiments, compositions were tested in male C57BL/6 jugular vein catheterized (JVC) mice, 5-6 weeks old (Taconic), by infusing the animals with the liquid sulfide liquid compositions using 1 mL or 5 mL Luer-Lok syringes (Becton Dickison). An IPTT-300 transponder from Bio Medic Data Systems (BMDS) was used to monitor body temperature.
Each mouse was dosed with liquid compositions through the in-dwelling catheter using an infusion pump (Harvard Apparatus). The mouse was infused until the temperature chip implanted in the skin registered a body temperature of 33° C. […] Once the animal's temperature dropped to 33° C. or below, the infusion was stopped and the mouse was transferred into a hypoxic atmosphere (4.0% O2) together with a control mouse.

C. elegans [2] = assay: Thermotolerance assay (survival at high temperature); format: in vivo
Procedure: (§1) Growing Nematodes in H2S-Containing Atmospheres. Bristol strain N2 (wild-type) and mutant nematode strains were grown at room temperature on nematode growth medium (NGM) plates seeded with live E. coli OP50 food (48). Mutant strains obtained from the C. elegans genetic stock center were as follows: CB130, daf-2(e1370); DR26, daf-16(m26); VC520, isp-1(gk267); MQ130, clk-1(qm30); DA1116, eat-2(ad1116); VC199, sir-2.1(ok434). Plates were maintained in atmospheric chambers sealed with Dow Corning Vacuum Grease (Sigma). […] Gasses were hydrated using gas wash bottles (Fisher), and moved through ⅛ inch outer diameter FEP tubing (Cole Parmer) with connections by snap connectors (Cole Parmer), stainless steel quick connect fittings or compression fittings (Seattle Fluid Systems). […] All compressed gas mixtures used in this study were obtained from Byrne Gas and were certified standard to within 2% of indicated concentration. Flow tubes (Aalborg) were used to distribute the gas mixture to different chambers. Gas flow rate was 100 cc/m to small boxes (100-300 mL) and 800 cc/m to the large boxes (1-3 L) used to culture nematode strains at room temperature. At these flow rates, the gaseous environment of the atmospheric chambers is exchanged every 20-30 minutes. […] Data were collected using Chart software with a Powerlab data acquisition unit (ADInstruments) and analyzed with EXCEL.
Thermotolerance Assay. […] Care was taken to prevent the population from starving. Nematodes were picked from these mixed-stage populations as L4 larvae and allowed to develop for 24-48 h at room temperature; however, treated and control animals were always the same age. […] Groups of 20-30 animals were transferred to NGM plates without food and then placed into an atmospheric chamber perfused with the indicated gas at high temperature in an Echotherm 1N35 incubator (Torrey Pines Scientific, NIST traceable) or a VWR incubator model 2005 (VWR International). A ring of palmitic acid around the edge of the plate helped prevent the worms escaping the surface of the agar. […]

mice = conditions: mouse, in vivo
Procedure: Experiments were stopped at 60 minutes, and animals still alive were returned to their cage.

C. elegans [3] = assay: Brood size measurement; format: in vivo; conditions: moved to H2S, n=5
Description: Brood size measurement. To determine the number of viable progeny produced by nematodes, individual fourth-stage larvae (L4) were transferred to NGM plates with OP50 food at room temperature. Animals were moved daily until they quit laying fertilized eggs. Progeny were counted as L4/young adult.

C. elegans [4] = assay: Lifespan in H2S-containing atmosphere; format: in vivo
Procedure: as §1

C. elegans [5] = assay: Rate of egg-laying; format: in vivo
Procedure: Animals were picked as L4 from mixed-stage populations and allowed to develop for 20-30 hours in the same conditions at room temperature. Individual worms were then placed onto NGM plates with a 10 μL spot of OP50 food. The number of embryos laid in 3-5 hours was counted to determine the rate of egg-laying. To create an atmosphere with 2% O2, N2 was mixed with 5% O2 balanced with N2. Smart-Trak series 100 mass flow controllers (Sierra Instruments) were used to mix the gas and to split it into 2 atmospheric chambers. […] In each experiment, 10-15 individuals were included in each group. The data shown in Table 2 are from one experiment that is representative of at least three independent assays.

C57BL/6 mice [6] = format: in vivo, mouse
[7] = 4.0% O2 after infusion until body temperature 33° C., test ended at 60 minutes
[8] = jugular vein infusion until body temperature of 33° C.

Compound: OCCS [2-Mercapto-ethanol]
- toxicity (C57BL/6 mice [1]; mouse, in vivo): toxic
- reduction of body (subcutaneous) temperature (C57BL/6 mice [1]; mouse, in vivo, sc): reduced body temperature

Compound: SCCOCCS [2-mercaptoethyl ether]
- reduction of body (subcutaneous) temperature (C57BL/6 mice [1]; infusion, primary screen): reduced body temperature
- toxicity (C57BL/6 mice [1]; mouse, in vivo): toxic

Compound: C[S+](C)[O-] [Dimethylsulfoxide]
- effective dose (C57BL/6 mice [1]; too high to be considered for pharmaceutical purposes): 10 % DMSO

Compound: S [H2S, hydrogen sulfide]
- fraction of H2S-treated animals alive when the last untreated control animal had expired (mean) (C. elegans [2]; 15 experiments, L4 to 3rd day adults, 33 to 37 C (FIG. 11A)): 0.8
- average of H2S-treated animals alive when all untreated animals had died (C. elegans [2]; 15 independent experiments, high temperature): 77-80%
- survival time at high temperature (C. elegans [2]; grown in H2S before heat-shock, exposed to 35 C in room air (FIG. 2C)): 7.3 h
- recovery after survival in 5% O2 (mice): no noticeable motor or behavioral deficits
- number of progeny (C. elegans [3]): 227±18
- delay in reaching 75% mortality versus control population (maximum lifespan) (C. elegans [4]; H2S-treated animals): 10 days
- lifespan (C. elegans [4]; raised in H2S until L4, monitored in room air (FIG. 3C)): 12.8 ± 0.7 days
- average rate of egg-laying (C. elegans [5]; clk-1(qm30), assayed in 2% O2 + H2S): 2.5 ± 1.0 embryos per hour
- average rate of egg-laying (C. elegans [5]; clk-1(qm30), assayed in H2S): 3.2 ± 1.1 embryos per hour
- average rate of egg-laying (C. elegans [5]; unadapted (wild-type grown in room air), assayed in 2% O2 + H2S): 4.5 ± 1.6 embryos per hour
- average rate of egg-laying (C. elegans [5]; unadapted (wild-type grown in room air), assayed in H2S): 8.3 ± 3.0 embryos per hour

Compound: CC(=O)N[C@@H](CS)C(=O)O [N-acetyl-L-cysteine]
- reduction of body (subcutaneous) temperature (C57BL/6 mice [1]; infusion, primary screen): did not reduce subcutaneous temperature

Compound: CC(O)=S [Thioacetic acid]
- enhancement of survival in hypoxia (C57BL/6 mice [6]; lethal hypoxia 4% O2): did not enhance survival in hypoxia
- reduction of body (subcutaneous) temperature (C57BL/6 mice [1]; mouse, in vivo, sc): reduced body temperature

Compound: NCCS [cysteamine]
- survival in lethal hypoxia (C57BL/6 mice [6]; [7]): 45 min
- effective dose (C57BL/6 mice [1]; mouse, in vivo): 7.58 mmol/kg

Compound: CSC [dimethyl sulfide]
- reduction of body (subcutaneous) temperature (C57BL/6 mice [1]; infusion, primary screen): did not reduce subcutaneous temperature

Compound: NCCCNCCSP(=O)(O)O [phosphorothioic acid S-(2-((3-aminopropyl)amino)ethyl)ester]
- enhancement of survival in hypoxia (C57BL/6 mice [6]; mouse, in vivo): did not enhance survival in hypoxia
- reduction of body (subcutaneous) temperature (C57BL/6 mice [1]; mouse, in vivo, sc): reduced body temperature

Compound: N=C(N)[SeH] [selenourea]
- enhancement of survival in hypoxia (C57BL/6 mice [6]; lethal hypoxia 4% O2): did not enhance survival in hypoxia
- reduction of body (subcutaneous) temperature (C57BL/6 mice [1]; mouse, in vivo, sc): reduced body temperature

Compound: CS(=O)[O-].[Na+] [sodium methane sulfinate]
- reduction of body (subcutaneous) temperature (C57BL/6 mice [1]; infusion, primary screen): did not reduce subcutaneous temperature

Compound: [SeH2] [sodium selenide]
- reduction of body (subcutaneous) temperature (C57BL/6 mice [1]; mouse, in vivo, sc): did not reduce subcutaneous temperature

Compound: N#C[S-].[Na+] [sodium thiocyanate]
- effective dose (C57BL/6 mice [1]; [8]): 4.67 mmol/kg

Compound: C[S-].[Na+] [sodium thiomethoxide]
- survival in lethal hypoxia (C57BL/6 mice [6]; [7]): 60 min
- effective dose (C57BL/6 mice [1]; [8]): 4.61 mmol/kg

Compound: OC1CCSCC1 [tetrahydrothiopyran-4-ol]
- survival in lethal hypoxia (C57BL/6 mice [6]; [7]): 15 min

Compound: O=C(O)CS [thioglycolic acid]
- reduction of body (subcutaneous) temperature (C57BL/6 mice [1]; infusion, primary screen): reduced body temperature
- toxicity (C57BL/6 mice [1]; mouse, in vivo): toxic

Compound: sodium sulfide
- survival in lethal hypoxia (C57BL/6 mice [6]; mouse, in vivo): 60 min
- effective dose (C57BL/6 mice [1]; mouse, in vivo): 0.79 mmol/kg
